Results on three substances are retold here after US20020197714A1, “Composition and method for increasing cell density in cell cultures infected with lentivirus” (Wyeth, priority 2001, published 2002).

The assay deals with Fet-J cells chronically infected with feline immunodeficiency virus (FIV). Put plainly: Cell density of FIV-infected Fet-J suspension cultures supplemented with antibiotics (trypan blue exclusion on hemacytometer). Format: cell-based. Particulars: for Cell density Day 1 / Cell density Day 2 / Cell density Day 3 / Cell density Day 4 / Cell density Day 5: antibiotic 30 micrograms/mL in serum free media, planted at 3×10^5 viable cells/mL; for Effect on growth / cell density compared with cultures without antibiotic (in words): antibiotic 30 micrograms/mL, Days 1-5. Here is the method:
In this example, Fet-J cells chronically infected with feline immunodeficiency virus (FIV) were grown in serum free media such as modified DMEM:F12 Media or AIM V media, supplemented with 2.5 mg/mL of ALBUMAX®, which is derived from BSA. Cells were grown in suspension in Erlenmeyer flasks on a rotary shaker at 150 rpm at 37° C. Cells were planted at a cell density of 3×10^5 viable cells/mL. Cell densities were determined by trypan blue exclusion on hemacytometer. Gp 120 expression determination was accomplished by enzyme linked immunosorbent assay (ELISA) using anti-FIV Gp 120 monoclonal antibodies. The antibiotics assessed for FIV supplementation included gentamycin, neomycin and polymixin B. Media were spiked with respective antibiotics at a concentration of 30 micrograms/mL. Cell densities were determined on a 24 hour basis by the method described above.

As to neomycin, the “Cell density Day 1” value is recorded as 4.7 × 10^5 cell/mL, the “Cell density Day 2” value is 7.8 × 10^5 cell/mL, the “Cell density Day 3” value is reported as 1.2 × 10^6 cell/mL and the “Cell density Day 4” value is on record as 1.3 × 10^6 cell/mL. The “Cell density Day 5” value is 1.8 × 10^6 cell/mL; the “Effect on growth / cell density compared with cultures without antibiotic (in words)” value was “best overall growth and increase in cell densities”.

As for gentamycin, the “Cell density Day 1” value is given as 2.4 × 10^5 cell/mL, the “Cell density Day 2” value is given as 3.2 × 10^5 cell/mL, the “Cell density Day 3” value is 6.5 × 10^5 cell/mL and the “Cell density Day 4” value is on record as 1.1 × 10^6 cell/mL. For the same substance, the “Cell density Day 5” value is listed as 1.1 × 10^6 cell/mL and the “Effect on growth / cell density compared with cultures without antibiotic (in words)” value is “no significant effect”.

For polymixin B, the “Cell density Day 1” value is 2.9 × 10^5 cell/mL, the “Cell density Day 2” value is 4.6 × 10^5 cell/mL, the “Cell density Day 3” value was 5.8 × 10^5 cell/mL and the “Cell density Day 4” value is 6.6 × 10^6 cell/mL. Also, the “Cell density Day 5” value is listed as 6.6 × 10^5 cell/mL and the “Effect on growth / cell density compared with cultures without antibiotic (in words)” value was “suppressed cell density”.
